Source: article PMC3340383, “Synthesis and Evaluation of a Series of 2-Substituted-5-Thiopropylpiperazine (Piperidine)-1,3,4-Oxadiazoles Derivatives as Atypical Antipsychotics” (PLoS ONE, 2012)
Where two headings read alike, the source gives them in different places.

Experiments:
[1] = target: T1, dopamine D2 receptor (Rattus norvegicus, UniProt P61169); assay: D2 dopaminergic binding assay ([3H]spiperone, rat striatum); conditions: read-out: Ki±SEM, D2
T1 construct: Rat striatum was homogenized in 20 volumes of ice-cold 50 mM Tris-HCl buffer; from tissue; host or cells: rat striatum
T1 sequence (P61169 whole entry): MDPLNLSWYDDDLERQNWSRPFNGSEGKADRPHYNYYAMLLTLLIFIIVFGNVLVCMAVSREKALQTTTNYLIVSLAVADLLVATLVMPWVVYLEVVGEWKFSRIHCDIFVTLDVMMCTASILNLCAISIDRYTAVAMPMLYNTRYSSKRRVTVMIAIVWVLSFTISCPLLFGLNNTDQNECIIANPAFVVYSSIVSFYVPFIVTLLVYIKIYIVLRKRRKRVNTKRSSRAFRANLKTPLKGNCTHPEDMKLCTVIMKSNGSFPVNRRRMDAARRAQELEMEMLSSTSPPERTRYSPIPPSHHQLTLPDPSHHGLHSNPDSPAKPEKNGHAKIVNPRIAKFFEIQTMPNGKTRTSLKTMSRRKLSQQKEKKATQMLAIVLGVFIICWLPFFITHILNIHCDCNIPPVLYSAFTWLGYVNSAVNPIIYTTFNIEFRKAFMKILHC
Procedure: (§1) All the new compounds were dissolved in 5% DMSO. The following specific radioligands and tissue sources were used: (a) serotonin 5-HT1A receptor, [^3H]8-OH-DPAT, rat brain cortex; (b) serotonin 5-HT2A receptor, [^3H]ketanserin, rat brain cortex; (c) serotonin 5-HT2C receptor, [^3H]mesulergine, rat brain cortex; (d) dopamine D2 receptor, [^3H]spiperone, rat striatum; (e) dopamine D3 receptor, [^3H]spiperone, rat olfactory tubercle (f) histamine H1 receptor, [^3H] pyrilamine, guinea pig cerebellum.
(§2) Total binding was determined in the absence of no-specific binding and compounds. Specific binding was determined in the presence of compounds. Non-specific binding was determined as the difference between total and specific binding.
(§3) Percentage of inhibition (%) = (total binding − specific binding)×100%/(total binding − nonspecific binding).
(§4) Ki values were calculated based on the Cheng and Prussoff equation: Ki = IC50/(1+C/Kd) where C represents the concentration of the hot ligand used and Kd its receptor dissociation constant were calculated for each labeled ligand. Mean Ki values and SEM were reported for at least three independent experiments.
Rat striatum was homogenized in 20 volumes of ice-cold 50 mM Tris-HCl buffer (pH 7.7) using an ULTRA TURAX homogeniser, and centrifuged twice for 10 min at 48,000 g with resuspension of the pellet in fresh buffer. The final pellet was resuspended in 50 mM ice-cold Tris-HCl containing 120 mM NaCl, 5 mM KCl, 2 mM CaCl2, 1 mM MgCl2, 0.1% ascorbic acid and 5 µM pargyline.
Total binding each assay tube was added 900 µL of the tissue suspension, 50 µL of 0.5 nM [^3H]spiperone (16.2 Ci/mmol; Perkin Elmer Life Sciences, Boston, MA, USA), 50 µL Tris-HCl buffer containing 120 mM NaCl, 5 mM KCl, 2 mM CaCl2, 1 mM MgCl2, 0.1% ascorbic acid and 5 µM pargyline.
Non-specific binding each assay tube was added 900 µL of the tissue suspension, 50 µL of 0.5 nM [^3H]spiperone, 50 µL of 10 µM (+)-butaclamol.
Specific binding each assay tube was added 900 µL of the tissue suspension, 50 µL of 0.5 nM [^3H]spiperone, 50 µL of new compounds or reference drug.
(§5) The incubation was followed by a rapid vacuum filtration through Whatman GF/B glass filters, and the filtrates were washed twice with 5 mL cold buffer and transferred to scintillation vials. Scintillation fluid (3.0 mL) was added and the radioactivity bound was measured using a Beckman LS 6500 liquid scintillation counter.

[2] = target: T2, serotonin 5-HT1A receptor (Rattus norvegicus, UniProt P19327); assay: 5-HT1A binding assay ([3H]8-OH-DPAT, rat brain cortex); conditions: read-out: Ki±SEM, 5HT1A
T2 construct: Rat cerebral cortex was homogenized in 20 volumes of ice-cold Tris-HCl buffer; from tissue; host or cells: rat brain (cerebral) cortex
T2 sequence (P19327 1-422): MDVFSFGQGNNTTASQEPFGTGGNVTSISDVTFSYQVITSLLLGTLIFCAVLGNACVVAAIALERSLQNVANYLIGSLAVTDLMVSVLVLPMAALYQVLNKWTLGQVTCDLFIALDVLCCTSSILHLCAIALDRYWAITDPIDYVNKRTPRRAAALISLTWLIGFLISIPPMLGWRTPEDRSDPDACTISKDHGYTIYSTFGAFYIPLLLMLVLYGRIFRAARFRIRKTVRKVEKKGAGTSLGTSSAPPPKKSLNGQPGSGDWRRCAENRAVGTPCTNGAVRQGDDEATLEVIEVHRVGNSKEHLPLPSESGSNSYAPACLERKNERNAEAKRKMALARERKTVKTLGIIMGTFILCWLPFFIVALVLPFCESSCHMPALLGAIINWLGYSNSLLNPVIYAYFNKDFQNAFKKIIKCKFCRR
Procedure: as §1, §2, §3, §4
Rat cerebral cortex was homogenized in 20 volumes of ice-cold Tris-HCl buffer (50 mM, pH 7.7) using an ULTRA TURAX homogeniser, and was then centrifuged at 32000 g for 10 min. […] The final pellet was resuspended in Tris-HCl buffer containing 10 µM Pargyline, 4 mM CaCl2 and 0.1% ascorbic acid.
Total binding each assay tube was added 900 µL of the tissue suspension, 50 µL of 0.5 nM [^3H]8-OH-DPAT (187.4 Ci/mmol, Perkin Elmer Life Sciences, Boston, MA, USA), 50 µL Tris-HCl buffer containing 10 µM Pargyline, 4 mM CaCl2 and 0.1% ascorbic acid.
Non-specific binding each assay tube was added 900 µL of the tissue suspension, 50 µL of 0.5 nM [^3H]8-OH-DPAT, 50 µL of 10 µM serotonin.
Specific binding each assay tube was added 900 µL of the tissue suspension, 50 µL of 0.5 nM [^3H]8-OH-DPAT, 50 µL of new compounds or reference drug.
as §5, with “5mL” for “5 mL”

[3] = target: T3, serotonin 5-HT2A receptor (Rattus norvegicus, UniProt P14842); assay: 5-HT2A binding assay ([3H]ketanserin, rat brain cortex); conditions: read-out: Ki±SEM, 5HT2A
T3 construct: Rat cerebral cortex was homogenized in 20 volumes of ice-cold Tris-HCl buffer; from tissue; host or cells: rat brain (cerebral) cortex
T3 sequence (P14842 whole entry): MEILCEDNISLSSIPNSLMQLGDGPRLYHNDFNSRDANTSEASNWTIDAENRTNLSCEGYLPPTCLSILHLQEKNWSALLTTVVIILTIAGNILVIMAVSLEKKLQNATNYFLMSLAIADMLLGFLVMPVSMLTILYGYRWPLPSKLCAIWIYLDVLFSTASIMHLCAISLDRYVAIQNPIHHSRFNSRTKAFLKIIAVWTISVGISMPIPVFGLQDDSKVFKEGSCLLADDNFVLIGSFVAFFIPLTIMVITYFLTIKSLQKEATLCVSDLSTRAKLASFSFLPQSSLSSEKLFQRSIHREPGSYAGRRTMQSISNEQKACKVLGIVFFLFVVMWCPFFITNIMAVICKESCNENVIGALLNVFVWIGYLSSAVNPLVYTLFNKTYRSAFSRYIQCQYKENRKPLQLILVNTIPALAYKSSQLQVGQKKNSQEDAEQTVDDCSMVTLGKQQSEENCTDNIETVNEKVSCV
Procedure: as §1, §2, §3, §4
Rat cerebral cortex was homogenized in 20 volumes of ice-cold Tris-HCl buffer (50 mM, pH 7.7) using an ULTRA TURAX homogeniser, and centrifuged at 32000 g for 20 min. The resulting pellet was resuspended in the same quantity of the buffer centrifuged for 20 min. The final pellet was resuspended in 50 volumes of the Tris-HCl buffer.
Total binding each assay tube was added 900 µL of the tissue suspension, 50 µL of 0.6 nM [^3H]ketanserin (60.0 Ci/mmol, Perkin Elmer Life Sciences, Boston, MA, USA), 50 µL Tris-HCl buffer.
Non-specific binding each assay tube was added 900 µL of the tissue suspension, 50 µL of 0.6 nM [^3H]ketanserin, 50 µL of 10 µM methisergide.
Specific binding each assay tube was added 900 µL of the tissue suspension, 50 µL of 0.6 nM [^3H]ketanserin, […] of new compounds or reference drug.
as §5

[4] = target: T4, dopamine D3 receptor (Rattus norvegicus, UniProt P19020); assay: D3 dopaminergic binding assay ([3H]spiperone, rat olfactory tubercle); conditions: mean of three experiments, read-out: Ki±SEM, D3
T4 construct: Rat olfactory tubercle was homogenized in 20 volumes of ice-cold 50 mM Hepes Na; from tissue; host or cells: rat olfactory tubercle
T4 sequence (P19020 whole entry): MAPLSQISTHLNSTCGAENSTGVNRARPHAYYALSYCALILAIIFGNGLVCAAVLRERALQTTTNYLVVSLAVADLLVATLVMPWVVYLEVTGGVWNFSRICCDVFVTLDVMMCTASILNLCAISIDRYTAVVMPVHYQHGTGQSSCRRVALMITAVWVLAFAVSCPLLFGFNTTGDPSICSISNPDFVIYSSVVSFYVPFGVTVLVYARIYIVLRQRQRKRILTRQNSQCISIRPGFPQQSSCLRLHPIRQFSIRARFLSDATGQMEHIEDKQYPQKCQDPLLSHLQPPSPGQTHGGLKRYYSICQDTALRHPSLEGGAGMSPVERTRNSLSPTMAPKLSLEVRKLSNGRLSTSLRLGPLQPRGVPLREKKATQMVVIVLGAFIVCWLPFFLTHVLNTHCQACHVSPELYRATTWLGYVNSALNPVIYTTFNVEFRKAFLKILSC
Procedure: as §1, §2, §3, §4, §5

[5] = target: T5, histamine H1 receptor (Cavia porcellus, UniProt P31389); assay: Histamine H1 binding assay ([3H]pyrilamine, guinea pig cerebellum); conditions: read-out: Ki±SEM, H1
T5 construct: Guinea pig cerebellum was homogenized in 20 volumes of ice-cold 50 mM phosphate buffer; from tissue; host or cells: guinea pig cerebellum
T5 sequence (P31389 whole entry): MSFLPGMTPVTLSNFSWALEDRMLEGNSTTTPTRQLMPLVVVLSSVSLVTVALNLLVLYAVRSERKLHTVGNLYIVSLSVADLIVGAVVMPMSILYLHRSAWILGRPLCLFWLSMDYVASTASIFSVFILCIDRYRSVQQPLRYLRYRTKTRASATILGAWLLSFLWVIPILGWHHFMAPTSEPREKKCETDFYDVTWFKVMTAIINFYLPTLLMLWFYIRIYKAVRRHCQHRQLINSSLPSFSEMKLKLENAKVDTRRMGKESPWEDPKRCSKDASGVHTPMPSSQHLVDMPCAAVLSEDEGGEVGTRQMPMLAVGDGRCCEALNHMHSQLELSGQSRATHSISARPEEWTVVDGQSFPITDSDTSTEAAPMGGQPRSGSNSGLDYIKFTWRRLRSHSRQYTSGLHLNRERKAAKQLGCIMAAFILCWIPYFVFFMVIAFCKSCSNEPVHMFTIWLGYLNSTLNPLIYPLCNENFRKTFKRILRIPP
Procedure: as §1, §2, §3, §4, §5

[6] = target: T6, serotonin 5-HT2C receptor (Rattus norvegicus, UniProt P08909); assay: 5-HT2C binding assay ([3H]mesulergine, rat brain cortex); conditions: mean of three experiments, read-out: Ki±SEM, 5HT2C
T6 construct: Rat cerebral cortex was homogenized in 20 volumes of ice-cold Tris-HCl buffer; from tissue; host or cells: rat brain (cerebral) cortex
T6 sequence (P08909 33-460): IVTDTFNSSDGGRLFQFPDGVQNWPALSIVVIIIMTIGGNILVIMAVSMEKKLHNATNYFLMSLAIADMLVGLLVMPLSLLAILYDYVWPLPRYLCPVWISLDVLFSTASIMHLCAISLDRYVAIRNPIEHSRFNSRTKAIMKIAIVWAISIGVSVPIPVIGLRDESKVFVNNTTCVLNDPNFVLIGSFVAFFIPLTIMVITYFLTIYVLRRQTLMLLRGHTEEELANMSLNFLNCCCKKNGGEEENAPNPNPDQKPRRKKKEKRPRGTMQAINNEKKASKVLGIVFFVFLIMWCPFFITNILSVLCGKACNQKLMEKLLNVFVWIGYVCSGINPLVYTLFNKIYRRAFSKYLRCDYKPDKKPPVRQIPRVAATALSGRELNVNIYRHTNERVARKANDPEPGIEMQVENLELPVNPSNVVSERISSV
Procedure: as §1
Total binding was determined in the absence of no-specific binding and compounds. Specific binding was determined in the presence of compounds. Non-specific binding was determined as the difference between total and specific binding. […]
Ki values were calculated based on the Cheng and Prussoff equation: Ki = IC50/(1+C/Kd) where C represents the concentration of the hot ligand used and Kd its receptor dissociation constant were calculated for each labeled ligand. […]
The resulting pellet was resuspended in the same quantity of the buffer centrifuged for 20 min. […]
as §5

[7] = test system: apomorphine-induced climbing behavior in mice; assay: Apomorphine-induced climbing; type: in vivo; conditions: Mus musculus, po, read-out: Apomorphine-induced climbing ED50 (A)
Procedure: . […] . Animals were then challenged at 30 minutes post-injection with 1.0 mg/kg of the apomorphine in 0.9% NaCl+0.1% ascorbic acid, placed in cylindrical wire cages (12 cm in diameter, 14 cm in height), and observed for climbing behavior at 10, 20 and 30 min post dose. The climbing behaviour was scored as follows: 3–4 paws on the cage floor = 0 score; 2 and 3 paws on the cage = 1 score; 4 paws on the cage = 2 score.

[8] = in vivo; conditions: Kun Ming (KM), mouse, po
[9] = test system: MK-801-induced hyperactivity in mice; assay: MK-801-induced hyperactivity; conditions: Mus musculus, po, read-out: MK-801-induced hyperactivity ED50 (B)
[10] = mice, 95% confidence limits in parentheses

In the case of `COc1ccc(-c2nnc(SCCCN3CCC(c4noc5cc(F)ccc45)CC3)o2)cc1` [Compound 14, 2-(3-(4-(6-fluorobenzo[d]isoxazol-3-yl)piperidin-1-yl)propylthio)-5-(4-methoxyphenyl)-1,3,4-oxadiazole], the Ki [1] is reported as 14.8 ± 1.8 nM, the Ki [2] is reported as 6.8 ± 0.7 nM and the Ki [3] is reported as 0.22 ± 0.02 nM. It also gave a Ki [4] of 219 ± 35.2 nM and a Ki [5] of 13.2 ± 3.4 nM.

Compound `Fc1ccc2c(C3CCN(CCCSc4nnc(-c5ccc(Cl)cc5)o4)CC3)noc2c1` [Compound 16, 2-(3-(4-(6-fluorobenzo[d]isoxazol-3-yl)piperidin-1-yl)propylthio)-5-(4-chlorophenyl)-1,3,4-oxadiazole] has a Ki ([1]; [3H]spiperone, rat striatum, mean of three experiments, >10000 marked b: Ki not calculated, inhibition at 10 µM too low) of 18.3 ± 1.6 nM, a Ki ([2]; [3H]8-OH-DPAT, rat brain cortex, mean of three experiments, >10000 marked b: Ki not calculated, inhibition at 10 µM too low) of 10.5 ± 1.2 nM and a Ki ([3]; [3H]ketanserin, rat brain cortex, mean of three experiments, >10000 marked b: Ki not calculated, inhibition at 10 µM too low) of 6.6 ± 0.8 nM. It also gave a Ki [4] of 15.5 ± 1.9 nM, a Ki [6] of 502 ± 56.2 nM and a Ki ([5]; [3H]pyrilamine, guinea pig cerebellum, mean of three experiments, >10000 marked b: Ki not calculated, inhibition at 10 µM too low) of 18.9 ± 2.1 nM.

With `CN1CCN(C2=Nc3cc(Cl)ccc3Nc3ccccc32)CC1` [clozapine] the ED50 [7, 10] was 7.99 mg/kg, the ED50 [8] was 92.7 mg/kg and the ED50 [9] was 5.06 mg/kg.

For `O=C(CCCN1CCC(O)(c2ccc(Cl)cc2)CC1)c1ccc(F)cc1` [haloperidol], the ED50 [7, 10] was 0.09 mg/kg, the ED50 [8] was 0.22 mg/kg and the ED50 [9] was 0.19 mg/kg.

With `Cc1nc2n(c(=O)c1CCN1CCC(c3noc4cc(F)ccc34)CC1)CCCC2` [risperidone] the ED50 [7] was 0.02 mg/kg.
